# Reference: ChEMBL document CHEMBL5223149, “The Emerging Landscape of Small-Molecule Therapeutics for the Treatment of Huntington's Disease” (J Med Chem, 2022)
# Legend:
# [1] = molecular target: Mitogen-activated protein kinase 14 (Homo sapiens, UniProt Q16539); assay: Inhibition of p38alpha (unknown origin)
# [2] = molecular target: Mitogen-activated protein kinase 10 (Homo sapiens, UniProt P53779); assay: Inhibition of JNK3 (unknown origin)
# Huntingtin [3] = molecular target: T1, Huntingtin (Homo sapiens, UniProt P42858); assay: Inhibition of mutant HTT (unknown origin)
# Target sequence in this assay (P42858 whole entry, looked up, change not shown): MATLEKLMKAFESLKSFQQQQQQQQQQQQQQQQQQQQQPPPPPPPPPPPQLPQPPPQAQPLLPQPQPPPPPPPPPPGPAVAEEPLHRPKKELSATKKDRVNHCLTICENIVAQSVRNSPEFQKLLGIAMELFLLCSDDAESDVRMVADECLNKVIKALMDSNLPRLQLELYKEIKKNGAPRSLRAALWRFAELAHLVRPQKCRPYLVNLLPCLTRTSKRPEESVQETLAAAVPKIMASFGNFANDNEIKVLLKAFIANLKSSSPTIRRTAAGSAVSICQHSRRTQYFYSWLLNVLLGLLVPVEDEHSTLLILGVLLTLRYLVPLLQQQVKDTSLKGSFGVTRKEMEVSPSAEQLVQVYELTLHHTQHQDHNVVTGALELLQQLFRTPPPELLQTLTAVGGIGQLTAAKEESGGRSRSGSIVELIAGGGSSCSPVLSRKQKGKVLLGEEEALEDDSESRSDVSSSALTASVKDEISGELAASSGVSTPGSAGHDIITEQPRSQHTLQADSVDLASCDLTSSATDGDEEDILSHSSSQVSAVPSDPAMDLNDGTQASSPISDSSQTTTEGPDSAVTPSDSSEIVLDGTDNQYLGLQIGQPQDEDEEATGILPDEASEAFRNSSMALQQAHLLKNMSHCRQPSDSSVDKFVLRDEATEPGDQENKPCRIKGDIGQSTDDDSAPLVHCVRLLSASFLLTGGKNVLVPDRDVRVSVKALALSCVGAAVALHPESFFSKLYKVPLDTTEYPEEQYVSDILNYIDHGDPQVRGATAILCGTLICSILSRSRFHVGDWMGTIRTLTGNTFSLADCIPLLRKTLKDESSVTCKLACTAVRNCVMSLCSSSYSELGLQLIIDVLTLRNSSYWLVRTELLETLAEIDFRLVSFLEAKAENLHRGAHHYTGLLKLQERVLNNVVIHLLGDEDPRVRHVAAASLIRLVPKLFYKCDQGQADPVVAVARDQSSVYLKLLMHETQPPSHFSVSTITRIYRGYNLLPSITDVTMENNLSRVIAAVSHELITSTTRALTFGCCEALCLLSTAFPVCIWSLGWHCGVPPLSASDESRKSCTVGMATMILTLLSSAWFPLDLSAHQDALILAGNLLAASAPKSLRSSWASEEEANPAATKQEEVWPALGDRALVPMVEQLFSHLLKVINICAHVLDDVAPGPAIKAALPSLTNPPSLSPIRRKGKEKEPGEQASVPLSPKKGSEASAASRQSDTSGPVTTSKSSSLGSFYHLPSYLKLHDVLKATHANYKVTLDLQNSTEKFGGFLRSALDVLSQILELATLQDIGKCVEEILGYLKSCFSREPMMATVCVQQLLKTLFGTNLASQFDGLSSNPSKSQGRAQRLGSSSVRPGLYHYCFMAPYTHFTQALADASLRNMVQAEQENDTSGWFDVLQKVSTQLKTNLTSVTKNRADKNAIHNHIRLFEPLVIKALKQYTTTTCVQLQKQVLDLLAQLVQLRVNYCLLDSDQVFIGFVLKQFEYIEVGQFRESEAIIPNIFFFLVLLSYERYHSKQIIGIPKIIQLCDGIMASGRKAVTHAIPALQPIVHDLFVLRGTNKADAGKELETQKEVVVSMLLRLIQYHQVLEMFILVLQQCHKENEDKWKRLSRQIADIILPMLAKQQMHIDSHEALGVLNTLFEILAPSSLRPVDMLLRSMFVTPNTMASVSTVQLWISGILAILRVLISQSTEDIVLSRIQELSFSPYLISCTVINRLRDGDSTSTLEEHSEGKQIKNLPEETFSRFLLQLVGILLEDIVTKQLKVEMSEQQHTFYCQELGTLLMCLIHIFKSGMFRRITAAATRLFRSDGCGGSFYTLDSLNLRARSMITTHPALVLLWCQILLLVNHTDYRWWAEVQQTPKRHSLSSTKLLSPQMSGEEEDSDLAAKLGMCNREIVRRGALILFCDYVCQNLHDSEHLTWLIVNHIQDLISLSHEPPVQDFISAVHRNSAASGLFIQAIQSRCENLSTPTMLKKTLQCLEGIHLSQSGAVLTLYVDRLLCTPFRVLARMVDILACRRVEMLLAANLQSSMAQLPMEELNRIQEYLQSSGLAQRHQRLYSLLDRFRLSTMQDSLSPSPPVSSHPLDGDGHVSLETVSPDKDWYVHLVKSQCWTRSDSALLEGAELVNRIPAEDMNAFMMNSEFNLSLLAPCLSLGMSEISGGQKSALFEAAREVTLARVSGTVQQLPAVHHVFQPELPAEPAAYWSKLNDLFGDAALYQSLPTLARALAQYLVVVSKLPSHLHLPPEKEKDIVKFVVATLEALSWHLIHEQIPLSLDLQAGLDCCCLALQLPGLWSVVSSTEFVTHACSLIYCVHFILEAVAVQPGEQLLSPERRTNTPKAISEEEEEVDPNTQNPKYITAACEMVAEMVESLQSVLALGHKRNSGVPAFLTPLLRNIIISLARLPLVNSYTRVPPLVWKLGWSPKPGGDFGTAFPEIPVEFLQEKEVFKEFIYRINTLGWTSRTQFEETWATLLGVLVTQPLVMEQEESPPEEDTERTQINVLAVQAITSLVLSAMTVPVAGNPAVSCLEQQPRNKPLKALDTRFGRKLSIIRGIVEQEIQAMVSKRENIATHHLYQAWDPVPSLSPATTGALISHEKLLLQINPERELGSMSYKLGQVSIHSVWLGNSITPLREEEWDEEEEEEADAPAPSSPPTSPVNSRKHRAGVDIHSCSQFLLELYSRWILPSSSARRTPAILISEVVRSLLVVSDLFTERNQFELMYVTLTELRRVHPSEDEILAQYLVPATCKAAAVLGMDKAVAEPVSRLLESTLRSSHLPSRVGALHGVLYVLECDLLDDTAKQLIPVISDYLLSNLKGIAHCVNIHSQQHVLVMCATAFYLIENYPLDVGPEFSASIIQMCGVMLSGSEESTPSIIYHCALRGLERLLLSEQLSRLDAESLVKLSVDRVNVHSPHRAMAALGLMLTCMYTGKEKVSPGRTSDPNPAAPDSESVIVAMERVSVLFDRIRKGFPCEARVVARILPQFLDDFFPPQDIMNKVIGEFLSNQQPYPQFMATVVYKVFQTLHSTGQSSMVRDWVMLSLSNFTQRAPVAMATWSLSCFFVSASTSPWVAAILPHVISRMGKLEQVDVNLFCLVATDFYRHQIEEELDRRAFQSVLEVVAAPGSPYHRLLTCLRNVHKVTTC
# [4] = molecular target: T2, NAD-dependent protein deacetylase sirtuin-2 (Homo sapiens, UniProt Q8IXJ6); assay: Inhibition of human recombinant SIRT2 using alpha-tubulin as substrate by coupled enzymatic analysis
# T2 sequence (Q8IXJ6 whole entry): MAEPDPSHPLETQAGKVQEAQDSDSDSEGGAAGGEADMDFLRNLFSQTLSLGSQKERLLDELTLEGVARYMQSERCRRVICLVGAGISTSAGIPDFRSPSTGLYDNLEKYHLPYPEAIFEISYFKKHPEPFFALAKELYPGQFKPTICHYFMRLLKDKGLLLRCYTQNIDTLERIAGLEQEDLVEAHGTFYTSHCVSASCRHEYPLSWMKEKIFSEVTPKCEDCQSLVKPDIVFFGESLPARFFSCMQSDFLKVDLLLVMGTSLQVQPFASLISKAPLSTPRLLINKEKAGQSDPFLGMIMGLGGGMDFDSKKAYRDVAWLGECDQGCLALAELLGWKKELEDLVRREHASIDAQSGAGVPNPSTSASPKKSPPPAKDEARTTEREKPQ
# [5] = Toxicity in Drosophila infected with huntington disease assessed as survival rate at 1 to 30 uM relative to control; details: dose 1-30 µM, read-out: Activity
# Histone deacetylase 4 = Histone deacetylase 4 (Homo sapiens, UniProt P56524); assay: Inhibition of HDAC4 (unknown origin)
# [6] = tested on: Huntingtin (Homo sapiens), P42858 [UNDEFINED MUTATION]; assay: Inhibition of mutant HTT (unknown origin) at 100 nM relative to control
# Chain of Huntingtin (Homo sapiens), P42858 [UNDEFINED MUTATION] (P42858 whole entry, looked up, change not shown): as the sequence (P42858 whole entry, looked up, change not shown) above
# [7] = Solubility of the compound; assay type: physicochemical
# Huntingtin [8] = molecular target: T1, Huntingtin; assay: Inhibition of HTT (unknown origin)
# Target sequence in this assay (P42858 whole entry): as the sequence (P42858 whole entry, looked up, change not shown) above
# [9] = Inhibition of PDI (unknown origin); set-up: species or system Homo sapiens
# [10] = molecular target: T3, Muscleblind-like protein 1 (Homo sapiens, UniProt Q9NR56); assay: Binding affinity to MBNL1 (unknown origin)
# T3 sequence (Q9NR56 whole entry): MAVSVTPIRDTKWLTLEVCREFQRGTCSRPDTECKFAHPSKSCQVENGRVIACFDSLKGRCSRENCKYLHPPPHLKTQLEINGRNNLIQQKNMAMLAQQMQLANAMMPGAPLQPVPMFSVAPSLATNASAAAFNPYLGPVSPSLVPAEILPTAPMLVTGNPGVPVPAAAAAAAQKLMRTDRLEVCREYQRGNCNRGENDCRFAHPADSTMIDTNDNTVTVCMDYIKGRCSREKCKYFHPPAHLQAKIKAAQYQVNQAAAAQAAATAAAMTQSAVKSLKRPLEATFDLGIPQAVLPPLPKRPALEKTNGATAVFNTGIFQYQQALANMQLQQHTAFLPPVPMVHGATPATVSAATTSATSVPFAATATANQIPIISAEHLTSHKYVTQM
# [11] = molecular target: Kynurenine 3-monooxygenase (Homo sapiens, UniProt O15229); assay: Inhibition of KMO (unknown origin)
# Chain of Kynurenine 3-monooxygenase (O15229 whole entry): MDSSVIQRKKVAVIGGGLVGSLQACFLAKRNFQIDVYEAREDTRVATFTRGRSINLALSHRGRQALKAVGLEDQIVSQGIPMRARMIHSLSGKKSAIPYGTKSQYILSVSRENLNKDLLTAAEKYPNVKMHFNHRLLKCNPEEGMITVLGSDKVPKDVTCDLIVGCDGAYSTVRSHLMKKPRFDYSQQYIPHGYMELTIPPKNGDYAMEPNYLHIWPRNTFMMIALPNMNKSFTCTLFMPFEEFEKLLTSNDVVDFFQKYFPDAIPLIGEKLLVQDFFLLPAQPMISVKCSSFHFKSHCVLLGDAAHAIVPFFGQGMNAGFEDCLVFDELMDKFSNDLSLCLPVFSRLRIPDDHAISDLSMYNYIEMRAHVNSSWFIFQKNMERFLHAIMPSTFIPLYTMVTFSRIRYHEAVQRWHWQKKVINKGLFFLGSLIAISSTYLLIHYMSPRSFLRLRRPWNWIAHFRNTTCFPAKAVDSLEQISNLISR
# Huntingtin [12] = molecular target: T1, Huntingtin; assay: Binding affinity to mutant HTT (unknown origin) mediated HD exon 1-72Q aggregation assessed as dissociation constant
# Target sequence in this assay (P42858 whole entry, looked up, change not shown): as the sequence (P42858 whole entry, looked up, change not shown) above
# [13] = molecular target: Microtubule-associated protein 1 light chain 3 beta (Homo sapiens, UniProt Q9GZQ8); assay: Binding affinity to LC3B (unknown origin) assessed as dissociation constant
# [14] = molecular target: cAMP and cAMP-inhibited cGMP 3',5'-cyclic phosphodiesterase 10A (Homo sapiens, UniProt Q9Y233); assay: Inhibition of PDE10A (unknown origin)
# Huntingtin [15] = molecular target: T1, Huntingtin; assay: Inhibition of mutant HTT (unknown origin) mediated HD exon 1 protein aggregation
# Target sequence in this assay (P42858 whole entry, looked up, change not shown): as above
# [16] = molecular target: G-protein coupled receptor 52 (Homo sapiens, UniProt Q9Y2T5); assay: Inhibition of GPR52 (unknown origin)
# [17] = molecular target: NAD(P)H dehydrogenase [quinone] 1 (Homo sapiens) (UniProt P15559); assay: Inhibition of NQO1 (unknown origin)
# Chain of NAD(P)H dehydrogenase [quinone] 1 (Homo sapiens) (P15559 whole entry): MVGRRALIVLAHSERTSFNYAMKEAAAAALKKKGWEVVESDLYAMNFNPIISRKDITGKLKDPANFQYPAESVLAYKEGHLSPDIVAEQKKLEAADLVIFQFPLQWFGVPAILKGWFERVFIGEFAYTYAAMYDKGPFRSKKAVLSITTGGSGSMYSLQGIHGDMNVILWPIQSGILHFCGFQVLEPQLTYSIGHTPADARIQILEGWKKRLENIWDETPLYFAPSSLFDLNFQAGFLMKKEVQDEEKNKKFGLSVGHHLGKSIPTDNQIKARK
# Chain of Mitogen-activated protein kinase 10 (P53779 whole entry): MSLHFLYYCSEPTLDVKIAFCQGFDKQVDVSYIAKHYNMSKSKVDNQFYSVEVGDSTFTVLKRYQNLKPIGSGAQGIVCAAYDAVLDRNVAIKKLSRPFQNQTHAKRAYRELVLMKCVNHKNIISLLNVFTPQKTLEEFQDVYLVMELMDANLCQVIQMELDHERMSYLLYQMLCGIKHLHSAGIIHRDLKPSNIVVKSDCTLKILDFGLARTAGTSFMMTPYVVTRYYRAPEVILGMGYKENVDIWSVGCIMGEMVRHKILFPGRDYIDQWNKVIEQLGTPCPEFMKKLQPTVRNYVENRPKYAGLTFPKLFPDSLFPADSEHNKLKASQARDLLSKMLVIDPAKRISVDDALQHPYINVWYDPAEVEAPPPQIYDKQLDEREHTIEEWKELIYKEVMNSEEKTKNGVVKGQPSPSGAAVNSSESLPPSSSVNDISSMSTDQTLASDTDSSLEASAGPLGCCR
# Chain of Mitogen-activated protein kinase 14 (Q16539 whole entry): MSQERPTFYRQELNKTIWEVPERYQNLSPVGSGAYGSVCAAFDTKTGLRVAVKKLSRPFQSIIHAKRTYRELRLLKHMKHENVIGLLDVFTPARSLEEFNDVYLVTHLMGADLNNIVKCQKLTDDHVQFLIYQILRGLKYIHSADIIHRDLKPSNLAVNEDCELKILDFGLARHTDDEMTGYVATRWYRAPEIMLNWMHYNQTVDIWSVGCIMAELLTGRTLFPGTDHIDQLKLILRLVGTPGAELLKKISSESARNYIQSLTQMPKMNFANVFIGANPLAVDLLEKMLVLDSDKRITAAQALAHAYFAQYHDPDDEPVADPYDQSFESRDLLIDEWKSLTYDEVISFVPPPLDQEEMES
structure (smiles),measurement,setting,value
FC1(F)CCC(Nc2nccc(-c3cn[nH]c3C3(C(F)(F)F)CC3)n2)CC1,IC50,[1],6080 nM
same,IC50,[2],94 nM
C=CCNc1ncnc2ccc(Br)cc12,EC50,Huntingtin [3],> 50000 nM
O=[N+]([O-])c1ccc(Sc2nnc(COc3ccccc3)n2-c2ccccc2)c2ncccc12,IC50,[4],1200 nM
same,survival,[5],20.7%
Nn1cnc2c(c1=O)C1(CCCC1)Cc1ccccc1-2,EC50,Huntingtin [3],4900 nM
C[C@H]1CCCN1[C@@H](C)NC(=O)c1ccc(-c2noc(C(F)(F)F)n2)cc1,IC50,Histone deacetylase 4,40 nM
O=C1Nc2ccc(Br)cc2/C1=C/c1cc(O)c(O)c(Br)c1,inhibition,[6],30%
C[C@@H]1CN(CC(=O)Nc2ccc3c(c2)Cc2cccc(-c4cc(=O)cc(N5CCOCC5)o4)c2S3)C[C@H](C)O1,solubility,[7],46 µg/mL
CC(C)C(C)Nc1cc(-c2[nH]c(SCCO)nc2-c2ccc(F)cc2)ccn1 (stereo not given),IC50,[2],181 nM
C[C@@H](N)[C@H]1CC[C@H](C(=O)Nc2ccncc2)CC1 [Y-27632],IC50,Huntingtin [8],5000 nM
O=C1C=C2C=C[C@@H]3C[C@@]2(O1)[C@H]1CCCCN31 [SECURININE],EC50,[9],3300 nM
Clc1ccc(-c2[nH]ncc2-c2ccncn2)cc1,IC50,[1],24 nM
same,IC50,[2],433 nM
COc1ccc2c(c1)Cc1cccc(-c3cc(=O)cc(N4CCOCC4)o3)c1S2,solubility,[7],11 µg/mL
Cc1cc2ccccc2nc1-c1ccccc1F,Kd,[10],0.011 nM
O=C(O)c1cc(-c2ccc(OC3CC3)c(Cl)c2)ncn1,IC50,[11],500 nM
Cc1ccc(C(=O)N(CCCN)[C@@H](C2=Nc3cc(I)ccc3CN2Cc2ccccc2)C(C)C)cc1,inhibition,[6],40%
same,Kd,Huntingtin [12],100 nM
same,Kd,[13],100 nM
O=C(O)c1cc(-c2ccc(Cl)c(Cl)c2)ncn1,IC50,[11],600 nM
O=c1c(O)c(-c2cc(O)c(O)c(O)c2)oc2cc(O)cc(O)c12 [MYRICETIN],Kd,[10],0.25 nM
O=c1cc(-c2ccccc2)c2c(O)cc(O)cc2o1,inhibition,[6],32%
Cc1ccc2c(c1)nc(CCc1coc3ccccc3c1=O)n2Cc1nccs1,IC50,[14],500 nM
CCCc1cc(OC(=O)c2ccccc2F)n(-c2cccc(F)c2)n1,IC50,Huntingtin [8],12000 nM
Cc1cc(O)c(C)c2sc(N)nc12,IC50,Huntingtin [15],40000 nM
Cc1cccc(OCC(=O)Nc2ccc(Nc3ccccc3)cc2)c1,IC50,Huntingtin [8],7500 nM
C=C1C(=O)O[C@@H]2C/C=C(\C)CC3C=C(C[C@H](OC(=O)/C(C)=C\C)[C@@H]12)C(=O)O3 (stereo not given in full),IC50,[16],12000 nM
COCCn1c(SC)nc(-c2ccc(F)cc2)c1-c1ccnc(NC(C)=O)c1,IC50,[2],202 nM
O=[N+]([O-])c1ccc(Sc2nnc(COc3ccccc3)n2-c2ccccc2)nc1,CD,[17],0.15 µM
